# Measured values reported in patent US8519128B2, “Pyripyropene derivatives having an ACAT2-inhibiting activity” (The Kitasato Institute, priority 2007, dated 2013).
# pIC50: −log10 of the molar value.
# Experiments:
# ACAT 2 = molecular target: T1, ACAT 2 (Mus musculus, UniProt O88908); assay: ACAT-inhibiting activity, mouse liver microsome membrane fraction, [14C]oleoyl-CoA; assay type: biochemical; conditions: for pIC50: mouse liver microsome, 5 minutes at 37° C.; for Specific activity: (inhibitory activity of test compound)/(inhibitory activity of pyripyropene A): relative to pyripyropene A
# T1 construct: The source of ACAT 2 enzyme used was a membrane fraction derived from mouse liver microsome; from tissue; host or cells: mouse liver (microsome fraction)
# T1 sequence (O88908 1-525): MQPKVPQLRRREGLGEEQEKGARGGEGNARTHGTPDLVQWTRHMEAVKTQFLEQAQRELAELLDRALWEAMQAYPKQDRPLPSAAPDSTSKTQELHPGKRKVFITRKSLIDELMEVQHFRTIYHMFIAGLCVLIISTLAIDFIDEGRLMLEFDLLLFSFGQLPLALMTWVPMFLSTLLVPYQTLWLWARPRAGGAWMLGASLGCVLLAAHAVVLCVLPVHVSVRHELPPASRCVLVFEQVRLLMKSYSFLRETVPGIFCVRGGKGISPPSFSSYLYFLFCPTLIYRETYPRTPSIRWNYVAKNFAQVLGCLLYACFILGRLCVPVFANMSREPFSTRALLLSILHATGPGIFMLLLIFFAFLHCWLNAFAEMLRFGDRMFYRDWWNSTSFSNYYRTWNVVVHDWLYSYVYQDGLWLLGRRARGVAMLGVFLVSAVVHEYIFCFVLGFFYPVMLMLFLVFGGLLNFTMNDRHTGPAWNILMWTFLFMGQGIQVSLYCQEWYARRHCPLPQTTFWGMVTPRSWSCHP
# In short: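 Enzyme source: mouse liver microsomal membrane fraction (100000×g pellet) at 5 mg/ml protein in 50 mM Tris-HCl pH 7.8, 1 mM EDTA, 1 mM PMSF; substrate [14C]oleoyl-CoA. Chloroform-extracted lipids resolved by silica TLC in hexane/diethyl ether/acetic acid (70:30:1).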
# [1] = tested on: apolipoprotein E-deficient mice; assay: Total plasma cholesterol after 14 days of daily oral administration, high-fat feed; assay type: in vivo; conditions: for total plasma cholesterol at day 14 (% of day 0): day 0 taken as 100%, control 212.2%; for suppression of the increase in total plasma cholesterol compared with pyripyropene A: oral administration, apolipoprotein E-deficient mice
# Description: Ten-week old apolipoprotein E-deficient mice (males, purchased from Jackson Laboratories) were kept under cycles of artificial light (day) for 12 hours and dark (night) for 12 hours by appropriately feeding a standard high-fat feed (D12079B, Research Diet). Before starting a test for each test compound, 100 μL of blood were collected from the caudal vein of each animal to measure the total cholesterol concentration in plasma using a commercially available kit (Determiner TC 555, Kyowa Medex). […] The test compound was orally administered daily at the start of the artificial light cycle of each day.
# Blood was collected at the start of the artificial light cycle on day 14 of administration of the test compound to measure the total plasma cholesterol. The total plasma cholesterol before administration of the test compound (on day 0) was taken as 100%, and the percent increase in total plasma cholesterol on day 14 after administration of the test compound started was calculated.
pIC50 (ACAT 2),Specific activity: (inhibitory activity of test compound)/(inhibitory activity of pyripyropene A) (ACAT 2),SMILES,total plasma cholesterol at day 14 (% of day 0) ([1]; 1 mg/kg oral daily) [%],total plasma cholesterol at day 14 (% of day 0) ([1]; 10 mg/kg oral daily) [%],total plasma cholesterol at day 14 (% of day 0) ([1]; 50 mg/kg oral daily) [%],suppression of the increase in total plasma cholesterol compared with pyripyropene A [1]
7.00 to 8.00,+++ (50 > specific activity > 10),"CC(=O)OCC1(C)C2C[C@H](OC(=O)c3ccc(C#N)cc3)[C@@]3(C)Oc4cc(-c5cccnc5)oc(=O)c4[C@H](O)C3[C@@]2(C)CC[C@@H]1OC(C)=O (some centres unmarked) [PRD 017, 7-p-cyanobenzoyl-7-deacetylpyripyropene A]",161.6,149.7,132.5,to a greater degree than did pyripyropene A
7.00 to 8.00,+ (5 > specific activity > 1),"CC12COC(c3ccccc3)O[C@H]1CC[C@@]1(C)C2C[C@H](OC(=O)c2ccc(C#N)cc2)[C@@]2(C)Oc3cc(-c4cccnc4)oc(=O)c3[C@H](O)C12 (some centres unmarked) [PRD 041, 1,11-O-benzylidene-7-O-p-cyanobenzoyl-1,7,11-trideacetylpyripyropene A]",102.4,88.2,101.1,to a greater degree than did pyripyropene A
7.00 to 8.00,+++ (50 > specific activity > 10),"CC(C)C(=O)OCC1(C)C2C[C@H](OC(=O)c3ccc(C#N)cc3)[C@@]3(C)Oc4cc(-c5cccnc5)oc(=O)c4[C@H](O)C3[C@@]2(C)CC[C@@H]1OC(=O)C(C)C (some centres unmarked) [PRD 056, 7-O-p-cyanobenzoyl-1,11-di-(O-isobutyryl)-1,7,11-trideacetylpyripyropene A]",148.0,114.8,86.1,to a greater degree than did pyripyropene A
6.00 to 7.00,+ (5 > specific activity > 1),"CC(=O)OCC1(C)C2C[C@H](OC(=O)CO)[C@@]3(C)Oc4cc(-c5cccnc5)oc(=O)c4[C@H](O)C3[C@@]2(C)CC[C@@H]1OC(C)=O (some centres unmarked) [PRD 107, 7-O-hydroxyacetyl-7-deacetylpyripyropene A]",–,–,–,–
6.00 to 7.00,+ (5 > specific activity > 1),"COCCOCOCC(=O)O[C@H]1CC2C(C)(COC(C)=O)[C@@H](OC(C)=O)CC[C@]2(C)C2[C@@H](O)c3c(cc(-c4cccnc4)oc3=O)O[C@@]21C (some centres unmarked) [PRD 108, 7-O-methoxyethoxymethoxyacetyl-7-deacetylpyripyropene A]",–,–,–,–
> 8.00,+++ (50 > specific activity > 10),"CC(=O)OCC1(C)C2C[C@H](OC(=O)c3ccc(Br)cc3F)[C@@]3(C)Oc4cc(-c5cccnc5)oc(=O)c4[C@H](O)C3[C@@]2(C)CC[C@@H]1OC(C)=O (some centres unmarked) [PRD 109, 7-O-p-bromo-o-fluorobenzoyl-7-deacetylpyripyropene A]",–,–,–,–
6.00 to 7.00,+ (5 > specific activity > 1),CC(=O)OCC1(C)C(OC(C)=O)CC[C@@]2(C)C1C[C@H](OC(=O)c1ccc(C(N)=O)cc1)[C@@]1(C)Oc3cc(-c4cccnc4)oc(=O)c3[C@H](O)C21 (some centres unmarked) [PRD 111],–,–,–,–
–,+++ (50 > specific activity > 10),"CC(=O)OCC1(C)C2C[C@H](OC(=O)c3ccc(C#N)c(F)c3)[C@@]3(C)Oc4cc(-c5cccnc5)oc(=O)c4[C@H](O)C3[C@@]2(C)CC[C@@H]1OC(C)=O (some centres unmarked) [PRD 112, 7-O-p-cyano-m-fluorobenzoyl-7-deacetylpyripyropene A]",–,–,–,–
–,–,"CC(=O)OCC1(C)C(OC(C)=O)CCC2(C)C1CC(OC(C)=O)C1(C)Oc3cc(-c4cccnc4)oc(=O)c3C(O)C21 (centres unmarked) [Pyripyropene A, reference compound]",–,177.3,174.0,–
